Assay results from patent US11001850B2, “Constructs and methods for biosynthesis of cyclopamine” (priority 2014, dated 2021).

Assays:
Format in all cases: biochemical, Veratrum californicum
[1] = system: CYP90B27 (cholesterol 22-hydroxylase); assay: Substrate testing of CYP90B27 (cholesterol 22-hydroxylase) co-expressed with CPR in Sf9 cells; set-up: key to Production of a detectable product (substrate testing), CYP90B27: Production of a detectable product is indicated by a (+); conditions: for Production of a detectable product (substrate testing), CYP90B27: 7.5 μM substrate, crude Sf9 cell suspension with CPR, 1.25 mM NADPH, 30° C. for 2 hours, GC-MS or LC-MS/MS; for Hydroxylation of substrate by cholesterol 22-hydroxylase (VC2646), in words: Sf9 cells with CPR, GC-MS
Procedure: Compounds were prepared to 1 mM stock solutions of 100% DMSO and diluted with H2O.
(§1) Standards were obtained from Sigma Aldrich, Research Plus, and Avanti. For GC-MS analysis, 5 individual assays per substrate were pooled after incubation at 30° C. for 2 hours; one assay produced sufficient product for analysis by LC-MS/MS. Assay conditions were as follows: 80 μl S. frugiperda Sf9 cell suspension (obtained by re-suspension of 50 ml viral infected culture pellet in 3.5 ml of 100 mM tricine pH 7.4/5 mM thioglycolic acid), 60 mM potassium phosphate buffer pH 8, 1.25 mM NADPH, 7.5 μM substrate, and H2O in a total volume of 200 μl. Controls were performed with no enzyme and S. frugiperda Sf9 cells expressing an unrelated cytochrome P450, or CPR-only, for each assay.

[2] = system: CYP94N1 (22-hydroxycholesterol 26-hydroxylase/oxidase); assay: Substrate testing of CYP94N1 (22-hydroxycholesterol 26-hydroxylase/oxidase) co-expressed with CPR in Sf9 cells; set-up: key to Production of a detectable product (substrate testing), CYP94N1: Production of a detectable product is indicated by a (+); conditions: for Hydroxylation of substrate by VC12709 (22-hydroxycholesterol 26-hydroxylase/oxidase), in words: Sf9 cells with CPR, GC-MS
Procedure: (§2) Each cytochrome P450 co-expressed with CPR in S. frugiperda Sf9 cells was subjected to individual enzyme assays with the compounds found in Table 6 to determine functionality. Compounds were prepared to 1 mM stock solutions of 100% DMSO and diluted with H2O.
as §1
Assay for GC-MS: Cytochrome P450 enzyme assay conditions were identical to those stated above using S. frugiperda Sf9 cell suspensions with the following modifications. First, 12 assays each containing 22-hydroxy-26-aminocholesterol 22-oxidase+CPR, 22-hydroxycholesterol 26-hydroxylase/oxidase+CPR, or control cytochrome P450+CPR and each with pure 22(R)-hydroxycholesterol were allowed to incubate overnight at 30° C. Like assays were pooled, extracted 3 times with 2 volumes ethyl acetate, dried under N2, and re-suspended in 180 μl of 25% DMSO. Extracts containing the enzymatic product of the 22-hydroxycholesterol 26-hydroxylase/oxidase+CPR and 22(R)-hydroxycholesterol were divided equally and used as substrate for 22-hydroxy-26-aminocholesterol 22-oxidase+CPR and control cytochrome P450+CPR. Extracts containing the enzymatic product of 22-hydroxy-26-aminocholesterol 22-oxidase+CPR and 22(R)-hydroxycholesterol were divided and used as substrate in 6 assays containing 22-hydroxycholesterol 26-hydroxylase/oxidase+CPR and 6 assays containing control cytochrome P450+CPR. Control P450+CPR assay was run in parallel, treated identically and added to another control P450 assay. Refer to FIG. 1A for an overview of the experiment. Assays were allowed to incubate for 20 min at 30° C. then stopped by addition of 20 μl of 20% TCA with vortexing. Like assays were pooled, extracted, derivatized, and analyzed by GC-MS using the method stated above.

[3] = system: CYP90G1 (22-hydroxy-26-aminocholesterol 22-oxidase); assay: Substrate testing of CYP90G1 (22-hydroxy-26-aminocholesterol 22-oxidase) co-expressed with CPR in Sf9 cells; set-up: key to Production of a detectable product (substrate testing), CYP90G1: Production of a detectable product is indicated by a (+); conditions: for Production of a detectable product (substrate testing), CYP90G1: 7.5 μM substrate, crude Sf9 cell suspension with CPR, 1.25 mM NADPH, 30° C. for 2 hours, GC-MS or LC-MS/MS; for Oxidation of the 22-hydroxy position of substrate by VC13284 (22-hydroxy-26-aminocholesterol 22-oxidase), in words: Sf9 cells with CPR, GC-MS / LC-MS/MS
Procedure: as §2, §1

SMILES | Production of a detectable product (substrate testing), CYP90B27 [1] | Hydroxylation of substrate by cholesterol 22-hydroxylase (VC2646), in words [1] | Production of a detectable product (substrate testing), CYP94N1 ([2]; 7.5 μM substrate, crude Sf9 cell suspension with CPR, 1.25 mM NADPH, 30° C. for 2 hours, GC-MS or LC-MS/MS) | Hydroxylation of substrate by VC12709 (22-hydroxycholesterol 26-hydroxylase/oxidase), in words [2] | Production of a detectable product (substrate testing), CYP90G1 [3] | Oxidation of the 22-hydroxy position of substrate by VC13284 (22-hydroxy-26-aminocholesterol 22-oxidase), in words [3]
CC(C)CCC[C@@H](C)[C@H]1CC[C@H]2[C@@H]3[C@@H](O)C=C4C[C@@H](O)CC[C@]4(C)[C@H]3CC[C@]12C [7β-hydroxycholesterol] | + | hydroxylated | – | – | – | –
CC(C)CC[C@@H](O)[C@@H](C)[C@H]1CC[C@H]2[C@@H]3CC=C4C[C@@H](O)CC[C@]4(C)[C@H]3CC[C@]12C [22(R)-hydroxycholesterol] | + | – | + | found to hydroxylate | + | oxidizes the 22-hydroxy position
CC(CO)CCC(O)[C@@H](C)[C@H]1CC[C@H]2[C@@H]3CC=C4C[C@@H](O)CC[C@]4(C)[C@H]3CC[C@]12C (stereo partly shown) [22,26-dihydroxycholesterol] | – | – | – | – | + | oxidizes the 22-hydroxy position
CC(CN)CCC(O)[C@@H](C)[C@H]1CC[C@H]2[C@@H]3CC=C4C[C@@H](O)CC[C@]4(C)[C@H]3CC[C@]12C (stereo partly shown) [22-hydroxy-26-aminocholesterol] | – | – | – | – | – | oxidizes the 22-hydroxy position
CC(C)CCC(=O)[C@@H](C)[C@H]1CC[C@H]2[C@@H]3CC=C4C[C@@H](O)CC[C@]4(C)[C@H]3CC[C@]12C [22-keto-cholesterol] | – | – | – | unable to hydroxylate | – | –
C[C@@H](CO)CCC[C@@H](C)[C@H]1CC[C@H]2[C@@H]3CC=C4C[C@@H](O)CC[C@]4(C)[C@H]3CC[C@]12C [26-hydroxycholesterol] | + | hydroxylated | – | – | – | –
CC(C)CCC[C@@H](C)[C@H]1CC[C@H]2[C@@H]3CC=C4C[C@@H](O)CC[C@]4(C)[C@H]3CC[C@]12C [cholesterol] | + | added a hydroxyl group to the 22-position | – | not detected | – | –
